Measured values from the supplement of paper PMC6045584.
± gives the standard deviation of the averaged measurements.

Legend:
LAPATINIB = compound: CS(=O)(=O)CCNCc1ccc(-c2ccc3ncnc(Nc4ccc(OCc5cccc(F)c5)c(Cl)c4)c3c2)o1 [LAPATINIB]; experiment: surviving fraction relative to DMSO-only wells; higher = less growth inhibition; conditions: exposure time: 5 days
Outline: (§1)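 Log-phase tumour cell lines were seeded at 250–500 cells per well in 384-well plates. After 24 hours they were exposed continuously for five days to inhibitors at 0.5, 1, 5, 10, 50, 100, 500 and 1000 nM. Viability was read by CellTiter-Glo luminescence after 10 minutes at room temperature, and surviving fraction is luminescence normalised to the median of DMSO-only wells. Each line was screened three times and kept only if replicate Pearson r >0.7 and median Z' >0.3.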

2-METHOXYESTRADIOL = compound: COc1cc2c(cc1O)CC[C@@H]1[C@@H]2CC[C@]2(C)[C@@H](O)CC[C@@H]12 [2-METHOXYESTRADIOL]; experiment: as above; conditions: exposure time: 5 days
Outline: as §1

Test System	surviving fraction (LAPATINIB; 0.5 nM)	surviving fraction (LAPATINIB; 1 nM)	surviving fraction (LAPATINIB; 5 nM)	surviving fraction (LAPATINIB; 10 nM)	surviving fraction (LAPATINIB; 50 nM)	surviving fraction (LAPATINIB; 100 nM)	surviving fraction (LAPATINIB; 500 nM)	surviving fraction (LAPATINIB; 1000 nM)	surviving fraction (2-METHOXYESTRADIOL; 0.5 nM)	surviving fraction (2-METHOXYESTRADIOL; 1 nM)	surviving fraction (2-METHOXYESTRADIOL; 5 nM)	surviving fraction (2-METHOXYESTRADIOL; 10 nM)	surviving fraction (2-METHOXYESTRADIOL; 50 nM)	surviving fraction (2-METHOXYESTRADIOL; 100 nM)	surviving fraction (2-METHOXYESTRADIOL; 500 nM)	surviving fraction (2-METHOXYESTRADIOL; 1000 nM)
MDAMB436 BREAST	0.893 ± 0.14	0.996 ± 0.13	0.834 ± 0.091	0.896 ± 0.03	1.02 ± 0.072	1.03 ± 0.12	1.05 ± 0.23	1.04 ± 0.083	0.944 ± 0.012	0.951 ± 0.19	1 ± 0.016	0.953 ± 0.065	0.956 ± 0.065	0.971 ± 0.045	0.779 ± 0.12	0.62 ± 0.079
MDAMB453 BREAST	1.06 ± 0.024	1.04 ± 0.061	1.09 ± 0.099	1.11 ± 0.12	0.993 ± 0.026	1.04 ± 0.018	0.868 ± 0.043	0.752 ± 0.024	1.04 ± 0.059	0.995 ± 0.032	1.02 ± 0.079	1.02 ± 0.037	1.08 ± 0.037	1.05 ± 0.048	0.511 ± 0.072	0.257 ± 0.014
MDAMB468 BREAST	1.07 ± 0.019	1.01 ± 0.042	1.13 ± 0.054	1.09 ± 0.08	1.086 ± 0.01	1.1 ± 0.051	0.948 ± 0.043	0.785 ± 0.058	0.994 ± 0.12	1.08 ± 0.056	1.03 ± 0.053	1.13 ± 0.072	1.09 ± 0.055	1.15 ± 0.065	1.01 ± 0.081	0.99 ± 0.064
MFM223 BREAST	1.18 ± 0.13	1.18 ± 0.14	1.15 ± 0.027	1.13 ± 0.081	1.058 ± 0.01	1.2 ± 0.034	1.02 ± 0.084		1.11 ± 0.1	1.11 ± 0.062	1.1 ± 0.093	1.17 ± 0.35	1.06 ± 0.034	0.973 ± 0.026	0.384 ± 0.057	0.16 ± 0.032
MG63 BONE	0.98 ± 0.029	1.04 ± 0.027	1.06 ± 0.035	1.07 ± 0.035	1.04 ± 0.039	1.08 ± 0.023	1.09 ± 0.017	1.11 ± 0.038	0.991 ± 0.015	1.008 ± 0.0075	1.02 ± 0.014	1.01 ± 0.018	1.04 ± 0.029	1.05 ± 0.021	0.971 ± 0.034	0.861 ± 0.03
MHM BONE	0.9907 ± 0.0093	1 ± 0.015	1.05 ± 0.014	1.07 ± 0.037	1.02 ± 0.027	1.02 ± 0.014	0.992 ± 0.033	1.01 ± 0.024	1.02 ± 0.035	1.01 ± 0.033	1.04 ± 0.049	1.03 ± 0.05	1.04 ± 0.029	1.03 ± 0.045	0.975 ± 0.015	0.673 ± 0.048
NCIH441 LUNG	1.06 ± 0.071	1.07 ± 0.12	1.08 ± 0.059	1.17 ± 0.067	1.03 ± 0.053	1.09 ± 0.043	1 ± 0.061	1.18 ± 0.054	1.1 ± 0.058	1.03 ± 0.073	1.08 ± 0.036	1.03 ± 0.065	1.03 ± 0.097	1.03 ± 0.084	0.922 ± 0.09	0.575 ± 0.093
NOS1 BONE	1.16 ± 0.16	1.05 ± 0.12	1.11 ± 0.069	1.12 ± 0.033	1.13 ± 0.068	1.08 ± 0.13	1.03 ± 0.093	0.898 ± 0.029	1.19 ± 0.077	1.15 ± 0.063	1.27 ± 0.18	1.28 ± 0.14	1.13 ± 0.23	1.22 ± 0.097	0.981 ± 0.055	0.438 ± 0.036
NY BONE	1.02 ± 0.025	1.03 ± 0.042	1.05 ± 0.025	1.1 ± 0.05	1 ± 0.028	1.1 ± 0.046	0.9837 ± 0.0064	1.04 ± 0.027	0.95 ± 0.026	0.952 ± 0.014	0.983 ± 0.021	0.994 ± 0.017	1.03 ± 0.018	1 ± 0.031	0.106 ± 0.0015	0.057 ± 0.0036
OS25HAL BONE	1.01 ± 0.018	1.06 ± 0.018	1.06 ± 0.066	1 ± 0.024	1.05 ± 0.029	1.04 ± 0.0055	1.09 ± 0.044	1.1 ± 0.053	0.828 ± 0.2	0.94 ± 0.029	0.961 ± 0.021	0.945 ± 0.042	1 ± 0.086	1.05 ± 0.072	0.501 ± 0.092	0.169 ± 0.014
OSHN BONE	1.03 ± 0.026	1.098 ± 0.0061	1.09 ± 0.025	1.1 ± 0.011	1.05 ± 0.02	1.08 ± 0.015	1.067 ± 0.0071	1.1 ± 0.015	1.03 ± 0.012	1.046 ± 0.0025	1.05 ± 0.026	1.031 ± 0.0067	1.054 ± 0.0092	1.068 ± 0.007	1.04 ± 0.033	0.044 ± 0.0036
PCI30 HEADNECK	1.06 ± 0.033	1.05 ± 0.06	1.05 ± 0.052	1.06 ± 0.084	1.14 ± 0.063	1.18 ± 0.062	1.01 ± 0.069	0.989 ± 0.071	0.783 ± 0.016	0.857 ± 0.019	1.03 ± 0.039	0.985 ± 0.057	1.01 ± 0.078	0.982 ± 0.051	0.421 ± 0.048	0.216 ± 0.046
RDES SOFT TISSUE		1.21 ± 0.12	1.14 ± 0.11	1.13 ± 0.13	1.09 ± 0.053	1.19 ± 0.11	1.41 ± 0.18	1.55 ± 0.19	1.26 ± 0.16	1.26 ± 0.086	1.15 ± 0.046	1.29 ± 0.11	1.29 ± 0.15	1.17 ± 0.14	1.13 ± 0.12	0.178 ± 0.034
S68 BREAST	1.12 ± 0.24	1.01 ± 0.2	1.17 ± 0.11	1.26 ± 0.22	1.07 ± 0.08	1.1 ± 0.33	0.71 ± 0.058	0.769 ± 0.032	0.845 ± 0.17	0.812 ± 0.15	0.879 ± 0.13	1.16 ± 0.3	1.24 ± 0.23	0.985 ± 0.067	0.617 ± 0.036	0.325 ± 0.017
SAOS2 BONE	1.14 ± 0.027	1.19 ± 0.066	1.24 ± 0.038	1.24 ± 0.049	1.18 ± 0.065	1.24 ± 0.099	1.21 ± 0.11	1.15 ± 0.22	1.09 ± 0.099	1.16 ± 0.065	1.17 ± 0.019	1.17 ± 0.05	1.28 ± 0.21	1.22 ± 0.051	0.769 ± 0.076	0.272 ± 0.013
SCC003 HEADNECK	1.08 ± 0.05	1.13 ± 0.054	1.06 ± 0.067	1.11 ± 0.079	0.963 ± 0.011	0.964 ± 0.054	0.757 ± 0.015	0.64 ± 0.069	0.936 ± 0.064	0.88 ± 0.13	1.03 ± 0.045	0.976 ± 0.074	1.04 ± 0.043	1.11 ± 0.017	0.867 ± 0.15	0.734 ± 0.087
SCC36 HEADNECK	1.03 ± 0.067	1.1 ± 0.089	1.08 ± 0.062	1.11 ± 0.051	0.918 ± 0.049	0.883 ± 0.067	0.543 ± 0.051	0.394 ± 0.043	1.09 ± 0.053	1.03 ± 0.052	1.09 ± 0.083	1.04 ± 0.091	1.22 ± 0.065	1.14 ± 0.016	0.94 ± 0.096	0.251 ± 0.029
SCC47 HEADNECK	1.09 ± 0.1	1.1 ± 0.016	1.09 ± 0.011	1.18 ± 0.033	1.05 ± 0.044	1.05 ± 0.072	0.82 ± 0.041	0.705 ± 0.053	0.816 ± 0.11	0.912 ± 0.15	0.977 ± 0.055	1.1 ± 0.16	1.09 ± 0.11	1.12 ± 0.15	0.838 ± 0.046	0.872 ± 0.12
SCC90 HEADNECK	1.02 ± 0.038	1.01 ± 0.1	1.01 ± 0.087	0.971 ± 0.04	0.845 ± 0.037	0.802 ± 0.067	0.532 ± 0.015	0.508 ± 0.023	0.927 ± 0.058	0.721 ± 0.076	1.02 ± 0.1	0.923 ± 0.12	1 ± 0.1	0.875 ± 0.099	0.185 ± 0.017	0.102 ± 0.013
